In general, Ki refers to the dissociation constant of the complex between target and ligand, obtained from inhibition or displacement.

This experiment has as its target SaDUF62 (Salinispora arenicola, UniProt A8M783). The experiment can be described thus: biochemical.

Chain of SaDUF62 (A8M783 whole entry): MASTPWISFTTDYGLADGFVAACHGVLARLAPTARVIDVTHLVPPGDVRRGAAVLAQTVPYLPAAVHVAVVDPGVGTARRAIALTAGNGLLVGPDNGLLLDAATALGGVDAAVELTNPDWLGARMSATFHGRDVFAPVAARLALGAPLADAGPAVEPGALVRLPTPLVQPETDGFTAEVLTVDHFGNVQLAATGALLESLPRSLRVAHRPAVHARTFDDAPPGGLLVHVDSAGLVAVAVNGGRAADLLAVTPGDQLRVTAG

On to `Cl` [chloride], for which the affinity, expressed as Ki, was 1 mM.
